Source: PubChem BioAssay (NCI)
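Interpolation was linear, between the two tested concentrations surrounding the appropriate level; five concentrations were tested over 48 hours in 96-well plates. GI50 marks 50% less growth. TGI is the concentration that stops growth completely.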

What was measured:
Assay in all cases: DTP human tumour cell line panel, 48 h
786-0 renal = tested on: 786-0 renal
CCRF-CEM leukemia = tested on: CCRF-CEM leukemia
HCC-2998 colon = tested on: HCC-2998 colon
K-562 leukemia = tested on: K-562 leukemia
NCI-H522 lung = tested on: NCI-H522 lung
RXF 393 renal = tested on: RXF 393 renal
SK-MEL-28 melanoma = tested on: SK-MEL-28 melanoma
SNB-75 CNS = tested on: SNB-75 CNS
UACC-62 melanoma = tested on: UACC-62 melanoma
MCF7 breast = tested on: MCF7 breast

Compound | TGI (786-0 renal) [µM] | TGI (CCRF-CEM leukemia) [µM] | TGI (HCC-2998 colon) [µM] | TGI (K-562 leukemia) [µM] | TGI (NCI-H522 lung) [µM] | TGI (RXF 393 renal) [µM] | TGI (SK-MEL-28 melanoma) [µM] | TGI (SNB-75 CNS) [µM] | TGI (UACC-62 melanoma) [µM] | GI50 (786-0 renal) [nM] | GI50 (CCRF-CEM leukemia) [nM] | GI50 (HCC-2998 colon) [nM] | GI50 (K-562 leukemia) [nM] | GI50 (RXF 393 renal) [nM] | GI50 (SK-MEL-28 melanoma) [nM] | GI50 (SNB-75 CNS) [nM] | GI50 (UACC-62 melanoma) [nM] | TGI (MCF7 breast) [µM]
Cc1cc(N(CCC#N)CCC#N)ccc1N=Nc1ccc(S(N)(=O)=O)cc1 | > 100 | > 100 | > 100 | > 100 | > 100 | > 100 | > 100 | > 100 | > 100 |  |  |  |  |  |  |  |  | 
COc1cnc2c(c1)C(=O)c1c-2n(CCCN2CCOCC2)c(=O)c2cc(F)ccc12 | 1.2 | > 100 | > 100 | > 100 |  | 0.913 | > 100 | 9.7 | 0.926 | 254 | 85.3 | 2750 | 320 | 226 | 1200 | 362 | 235 | 
CNC(=S)OCCC(C)CCCC(C)C (configuration not stated) | 30.9 | 40.7 | 32.2 | 30.9 |  | 30.3 | 41 | 40.6 | 29.1 |  |  |  |  |  |  |  |  | 
COc1ccc(CC2c3cc4c(cc3CCN2C)OCO4)c(C=O)c1OC (configuration not stated) | > 100 | > 100 | > 100 | > 100 | > 100 |  | > 100 | > 100 | > 100 |  |  |  |  |  |  |  |  | > 100
NC(=O)NO.O.O.O.O.O.O.O.O.O.O.O.[Ge].[Ge].[Ge].[Ge].[Ge].[O]=[Ge].[O]=[Ge].[O]=[Ge].[O]=[Ge].[O]=[Ge][OH] | > 100 | > 81.6 | > 100 | > 100 | > 100 | > 100 | > 100 | > 100 | 53.5 |  |  |  |  |  |  |  |  | 
CCCCCCCCCCCC(=O)OCCOCCOCCOCCOCCOCc1ccccc1 | > 100 | > 100 | > 100 | > 100 | > 100 | > 100 | > 100 | > 100 | > 100 |  |  |  |  |  |  |  |  | 
CCN(CC)CCSc1c2ccccc2nc2cc(NCC(=O)Nc3ccccc3-c3ccccc3NC(=O)CNc3ccc4c(SCCN(CC)CC)c5ccccc5nc4c3)ccc12 | > 100 | 96.9 | > 100 | > 73.5 | > 100 | > 100 | > 100 | > 100 | > 100 |  |  |  |  |  |  |  |  | 
O=C(CCc1nc(=S)[nH][nH]1)Nc1cc(Cl)c(Cl)cc1Cl | > 100 | > 100 | > 100 | > 100 | > 100 | > 100 | > 100 | > 100 | > 100 |  |  |  |  |  |  |  |  | 
CCOC(=O)Cn1c(C(F)(F)F)nc2nc(Cl)c(Cl)nc21 | > 100 | > 69.5 |  | > 100 | 58.2 | > 100 | > 100 | > 100 | > 78.4 |  |  |  |  |  |  |  |  | > 87.4
Cc1c(C(=O)CC(=O)C(=O)Nc2ccccc2C(F)(F)F)[n+](=O)c2ccccc2n1[O-] | > 100 | 50 | 57.7 | 93.2 | 35.8 | 80.1 | 92.1 |  | 34.4 |  |  |  |  |  |  |  |  | 
CO/C(=N\N=C\c1ccc(C(F)(F)F)cc1)c1ccncc1 | > 10 | > 10 | > 10 | > 10 | > 10 | > 10 |  |  |  |  |  |  |  |  |  |  |  | > 10
